Earlier results, collected in article PMC3237771 (Biomacromolecules, 2011).

Conditions: aqueous buffer; no reference given

N=c1c[n+](N2CCOCC2)[n-]o1 [SIN-1, 3-morpholinosydnonimine]
Half-life in aqueous environments: < 10 h
